Reference: US5811391A, “Cyclic CS-1 peptidomimetics, compositions and methods of using same” (Cytel Corporation, priority 1995, dated 1998)
Positions of bridges follow the written chain, without caps; N, C: chain ends. Residues, ends and D or L forms follow the SMILES beside them. No end group written: not given here.

How the values were obtained:
[1] = molecular target: VLA-4 (Homo sapiens, UniProt P05556+P13612); test: In vitro binding assay: 51Cr-labeled Jurkat cells to solid phase-bound CS-1 peptide (SEQ ID NO:5); assay type: cell-based; design: inflammatory cells that contain the VLA-4 receptor [Jurkat cells; host or cells: Jurkat cells (human T lymphoblastic line); settings: for Relative Potency: Table 1, normalized IC50 potency relative to standard peptide SEQ ID NO:6 (=1), Jurkat cells, CS-1
Experimental: Binding inhibition is measured here as a concentration of peptide that inhibits one-half the binding between a standard number of Jurkat cells and a standard amount of CS-1 peptide bound to the surface of a microtiter plate well. Those concentrations are conveniently expressed as IC50 values, smaller numbers indicating a lower concentration required to inhibit 50 percent binding and therefore greater potency. Further specifics of this assay are provided hereinafter.
Jurkat cells (ATCC TIB 152), a human T lymphoblastic line, labeled with ^51 chromium were used to assay in vitro binding inhibition provided by various peptides discussed herein.
The plates were prepared as follows: The 25-mer CS-1 peptide (SEQ ID NO:5) dissolved at 0.5-1 μg/ml in a buffer of 0.1M NaHCO3 at pH 9.5 that also contained 10 μg/ml of bovine serum albumin (BSA) or a conjugate of the CS-1 peptide linked to ovalbumin (CS-1-OVA) dissolved at 1-2.5 μg/ml in the same buffer was used as the substrate. Each well of the microtiter plates was coated with 50 μl of substrate or buffer alone for controls. The wells were permitted to dry out completely and were then rinsed twice with PBS at pH 7.4. Non-specific binding sites of each well were then blocked using 200 μl per well of RPMI/1 percent BSA for two hours at room temperature. Both solid phase-affixed substrates provided similar results.
Jurkat cells (3-5×10^6 cells) were placed into a 15 ml FALCON™ round-bottom tube with a cap. The tube was centrifuged, and the extra medium was then removed.
Two hundred microliters of a ^51 Cr labeling solution were added to the centrifuged cells and maintained in contact with the cells for 90-120 minutes in a warm room. This procedure typically provides about 50,000-100,000 cpm/well with about 80-100 percent cell viability. Longer contact times provide a greater amount of labeling but lower cell viability.
The labeled cells were washed with (i) complete medium, (ii) 1mM EDTA/PBS and then (iii) RPM1/1 percent BSA free of serum components. The cells were centrifuged after each washing. The cells were finally resuspended in serum-free RPMI/1 percent BSA at a concentration of 1×10^6 viable cells/ml, which provides a concentration that is diluted by one-half in the assay.
Cyclic inhibitor peptides were prepared as stock solutions at 20 mg/ml in DMSO in 1.5 ml cryogenic screwcap vials, and were stored at -70° C. Using FLOW™ round-bottom or V-bottom microtiter plates, the inhibitor peptides were prepared at twice the assay concentration in RPMI/1 percent BSA at 60 μl/well.
Four initial dilutions were typically used.
The ^51 Cr-labeled cells (1×10^6 cells at 60 μl/well) were then admixed with the diluted cyclic peptide solutions. The admixtures were maintained at room temperature (about 22° C.) for 30 minutes.
One hundred microliters of each inhibitor peptide/cell admixture were transferred to the substrate-coated wells. This was done in triplicate for each dilution. The resulting plates were incubated for 30 minutes at 37° C. and then washed gently three times with RPMI/1 percent BSA at 200 μl/well. Binding was observed microscopically, particularly after the second wash.
The bound cells were then lysed by the addition of a 0.5 percent solution of sodium dodecylsulfate in water at 100 μl/well. The resulting solutions were then processed for counting and calculation of IC50 values following usual procedures. Appropriate positive and negative controls were used with each plate so that the results of separate assays could be normalized and compared.
The potency data of Table 1 and Table 2 are so normalized. The absolute IC50 value for the peptide of SEQ ID NO:7 is 0.3 μM.

[2] = tested on: porcine peripheral blood lymphocytes / coronary artery endothelial cells and smooth muscle cells; test: In vitro porcine allograft model: transendothelial lymphocyte migration; assay type: cell-based; settings: 10 μg/ml in the medium, IL-1β-stimulated SMC; present-tense example
Experimental: A similar study is carried out in vitro using porcine coronary artery endothelial cells (EC; as are present in the IEL) and smooth muscle cells (SMC; as are present in the medial layer of the artery). The two cell types are cultured using a membrane transwell system, with the SMC on the bottom layer in M-199 medium (Gibco Labs.). The SMC are stimulated with 100 ng/ml of interleukin-1β (IL-1β) for 24 hours prior to the start of the assay. Porcine peripheral blood lymphocytes are separated by Ficoll-Hypaque, radiolabeled and incubated overnight (about 18 hours) on the EC.

[3] = Elices et al. 1993; cited from earlier work
[4] = Retention of potency in PBS containing 10 percent mouse or human serum; assay type: in vitro ADME; settings: PBS at 7.2-7.4 containing 10 percent mouse or human serum
[5] = tested on: Jurkat cell adhesion to RA synovial sections; settings: 10-mer at 500 μg/ml; reported in Elices et al., J. Clin. Invest. 1994; cited from earlier work
[6] = molecular target: T1, VLA-4/sVCAM-1 (Homo sapiens, UniProt P05556+P13612); test: In vitro binding assay: Jurkat cells to solid phase-bound sVCAM-1; assay type: cell-based
T1 construct: host or cells: Jurkat cells carry the VLA-4; The sVCAM-1 partner was made in house in transfected human embryonal kidney 293 cells (ATCC CRL 1573)
Experimental: Assays conducted using sVCAM-1 as solid phase-bound antigen were carried out substantially identically to those using CS-1. The sVCAM-1 polypeptide used had the same amino acid residue sequence as the materials described in Lobb et al., Biochem. Biophys. Res. Commun., 178:1498-1504 (1991) and Cybulsky et al., Proc. Natl. Acad. Sci., USA, 88:7859-7863 (1991). Human embryonal kidney line 293 (ATCC CRL 1573) cells were co-transfected with a plasmid (pCDNAI;invitrogen) containing the sVCAM-1 DNA sequence and plasmid pSV2-neo [Southern et al., J. Mol. Appl. Gen., 1:327-341 ([…])]. Cells were selected in DMEM, 10 percent fetal bovine serum and 600 μg/ml Geneticin. sVCAM-1 was purified from supernatants using a column containing monoclonal antibody P3H12 (anti-human VCAM-1) coupled to Sepharose 4B. The sVCAM-1 was eluted using 0.1M glycine at pH 2.5 following 50 column washes with PBS, pH 7.2. The eluate was immediately neutralized and dialyzed against PBS for use.

VLA-4, sequence (P13612 34-1032): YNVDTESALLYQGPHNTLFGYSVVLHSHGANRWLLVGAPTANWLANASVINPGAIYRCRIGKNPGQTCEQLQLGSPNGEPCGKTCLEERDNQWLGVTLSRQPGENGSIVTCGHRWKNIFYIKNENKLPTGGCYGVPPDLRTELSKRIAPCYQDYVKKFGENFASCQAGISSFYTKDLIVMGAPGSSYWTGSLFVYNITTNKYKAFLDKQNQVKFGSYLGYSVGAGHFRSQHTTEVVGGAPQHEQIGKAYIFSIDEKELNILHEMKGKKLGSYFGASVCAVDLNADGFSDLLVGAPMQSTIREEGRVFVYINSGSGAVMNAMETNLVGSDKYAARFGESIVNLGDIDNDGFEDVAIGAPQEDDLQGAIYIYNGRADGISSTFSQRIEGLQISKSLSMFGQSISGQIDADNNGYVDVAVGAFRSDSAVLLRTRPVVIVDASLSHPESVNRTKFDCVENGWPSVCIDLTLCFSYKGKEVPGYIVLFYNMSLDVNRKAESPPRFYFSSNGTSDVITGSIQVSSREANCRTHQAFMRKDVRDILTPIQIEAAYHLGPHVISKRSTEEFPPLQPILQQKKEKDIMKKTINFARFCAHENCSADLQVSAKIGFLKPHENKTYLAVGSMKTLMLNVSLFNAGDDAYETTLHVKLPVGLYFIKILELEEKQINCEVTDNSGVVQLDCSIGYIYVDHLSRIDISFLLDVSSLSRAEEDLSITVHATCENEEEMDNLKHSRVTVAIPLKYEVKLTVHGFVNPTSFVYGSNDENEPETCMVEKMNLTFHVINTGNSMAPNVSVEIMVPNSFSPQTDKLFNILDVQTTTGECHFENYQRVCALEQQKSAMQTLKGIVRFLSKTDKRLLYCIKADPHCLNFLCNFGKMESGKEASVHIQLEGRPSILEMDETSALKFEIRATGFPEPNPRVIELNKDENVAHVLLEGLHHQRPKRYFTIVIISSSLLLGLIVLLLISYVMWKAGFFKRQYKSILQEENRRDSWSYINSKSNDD
VLA-4, sequence (P05556 21-798): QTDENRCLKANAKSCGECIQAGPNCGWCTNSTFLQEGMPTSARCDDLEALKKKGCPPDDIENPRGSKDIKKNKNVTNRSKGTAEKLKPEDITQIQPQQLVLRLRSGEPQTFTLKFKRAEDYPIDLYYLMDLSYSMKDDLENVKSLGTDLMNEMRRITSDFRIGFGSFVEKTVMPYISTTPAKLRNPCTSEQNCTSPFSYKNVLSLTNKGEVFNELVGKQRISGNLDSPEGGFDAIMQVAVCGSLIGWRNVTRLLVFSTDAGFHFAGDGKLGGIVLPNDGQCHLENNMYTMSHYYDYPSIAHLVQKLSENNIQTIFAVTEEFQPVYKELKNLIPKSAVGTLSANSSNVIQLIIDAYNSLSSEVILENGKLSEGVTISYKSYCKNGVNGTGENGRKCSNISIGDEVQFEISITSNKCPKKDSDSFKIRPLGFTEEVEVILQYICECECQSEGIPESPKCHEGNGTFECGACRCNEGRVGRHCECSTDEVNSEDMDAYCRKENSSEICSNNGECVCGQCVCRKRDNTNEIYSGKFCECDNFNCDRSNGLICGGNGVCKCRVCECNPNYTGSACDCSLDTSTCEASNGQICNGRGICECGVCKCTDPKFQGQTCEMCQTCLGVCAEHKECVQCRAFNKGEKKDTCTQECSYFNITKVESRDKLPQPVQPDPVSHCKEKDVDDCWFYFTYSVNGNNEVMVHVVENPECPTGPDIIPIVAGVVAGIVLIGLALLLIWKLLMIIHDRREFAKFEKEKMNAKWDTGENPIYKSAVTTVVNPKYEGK
T1 sequence (P13612 34-1032): as the sequence (P13612 34-1032) above
T1 sequence (P05556 21-798): as the sequence (P05556 21-798) above

Row | Relative Potency [1] | loss of potency in serum-containing buffer [4] | Potency in inhibiting Jurkat cell binding to CS-1 relative to standard 10-mer of SEQ ID NO:6 ([1]; times/fold more potent than SEQ ID NO:6) | inhibition of binding between solid phase-bound sVCAM-1 and Jurkat cells (in words) [6] | Compound | transendothelial lymphocyte migration [2] | clearance from blood circulation [3] | inhibition of Jurkat cell adhesion to RA synovial sections [5]
1 | 122 |  |  |  | CC(C)C[C@@H]1NC(=O)[C@H](Cc2ccccc2)NC(=O)[C@@H](N)CSSC[C@@H](C(N)=O)NC(=O)[C@H](CO)NC(=O)[C@@H]2CCCN2C(=O)[C@H](Cc2ccccc2)NC(=O)[C@H](CC(=O)O)NC1=O [SEQ ID NO:13, CFLDFPSC-NH2] (H-CFLDFPSC-NH2; disulfide 1-8) | reduces lymphocyte migration |  | 
2 |  | lost its potency in less than one hour |  |  | DELPQLVTLPHPNLHGPEILDVPST [CS-1 peptide, reference compound] |  | rapidly cleared from blood circulation by proteolytic degradation | 
3 | 1 |  | ~1 | no inhibition | GPEILDVPST [SEQ ID NO:6, standard 10-mer peptide GlyProGluIleLeuAspValProSerThr, set atone, reference compound] |  |  | can be inhibited
